This note sets out measurements from US11624748B2, “Methods and compositions for the identification of epithelial to mesenchymal breast cancer” (Tuskegee University, priority 2019, dated 2023).

In assay [1] the test system is EMT phenotypic cells (MCF-7/TGFβ, MDA-MB-231 and T47D-shNMI). In words: phage capture assay. Format: cell-based, human. Conditions: for selectivity for EMT phenotypic cells: MDA-MB-231 and T47D-shNMI, selective = at least five times higher relative binding. From the text: (§1) Individual phage clones were characterized for their selectivity toward EMT cells, MCF-7/TGFβ and MDA-MB-231 breast cancer cells in comparison with epithelial breast cancer cells, MCF-7, T47D, and breast fibroblasts using phage capture assay and cell-based ELISA.
(§2) In phage capture assay, briefly, target cells MCF-7/TGFβ, MDA-MB-231, MCF-7, T47D, T47D-shNMI and breast fibroblasts were cultivated in triplicate to confluence in separate wells of 12-well cell culture plates. The medium with serum was incubated in separate wells in triplicate as a control. Cells were incubated with phage (1×10^10 pfu) at RT for 1 h. Unbound phages were carefully removed and cells were washed with 100 μl washing buffer for 5 min eight times to remove non-specifically interacting phages. Cells were lysed with […] (2.5% CHAPS) for 10 min on a rocker. The lysate containing cell-interacting phages was titered in E. coli ER2738 bacterial cells. Phage recovery was calculated as a ratio of output to input phage.

Assay [2] concerns EMT cells (MCF-7/TGFβ, MDA-MB-231, T47D-shNMI). The assay can be described thus: phage based-ELISA (cell-based ELISA). On the set-up: species or system human. Conditions: 10^10 PFU, 1 hour at RT. How it is done:
as §1
Confluent monolayers of MCF-7/TGFβ, MDA-MB-231, MCF-7, T47D, T47D-shNMI and breast fibroblasts cells were incubated at room temperature with individual phage clones (10^10 PFU), for 1 hour at RT. Subsequently, cells were washed with PBS containing 0.1% Tween-20, incubated with primary anti-M13-biotin antibody (1:1000), for 1 h, at RT. Cells were washed again with PBS containing 0.1% Tween-20, incubated with secondary antibody streptavidin-HRP (1:2000, 45 min, RT), developed with tetra methyl benzidine and read at absorbance 650 with microplate reader (BioTek).
For orientation: In an ELISA, binding on a coated surface is turned into a signal by an enzyme label.

The test system of the next assay is activated fibroblasts. In words: phage capture assay of phage binding to cancer-conditioned media activated fibroblasts. It counts as cell-based, human. How it is done: as §2
Breast fibroblasts were plated in a 12.5 cm flask cultured until approximately 70% confluent. Once properly confluent, fibroblasts were then cultured in MDA-MB-231 conditioned media or normal fibroblasts media for 72 hours. Thereafter, they were exposed to E11 phage (10^8 pfu) for 2 hours and analyzed for binding in phage capture assay as described above.

The next assay has as its system MCF-7 cells. The assay can be described thus: immunofluorescence microscopy of phage binding. It counts as cell-based, human. The note with it: 10^8 pfu, RT 1 hr. How it is done: (§3) MCF-7, MCF-7/TGFβ, MDA-MB-231 and Hs578T (breast fibroblasts) cells were seeded in a 4-well chamber overnight. On the next day, cells were fed with fresh medium. LGLRGSL (SEQ ID NO: 1) (E11) (10^8 pfu) was added in fresh medium and incubated at RT for one hour. After removing the unbound phages, cells were washed with wash buffer (0.1% tween-20 in PBS) three times and fixed with 4% formaldehyde for 15 minutes at 37° C. Cells were permeabilized with 0.2% Triton X-100 at RT for 10 minutes. Reagent was removed and cells were washed with TBS 3 times. Before incubation with anti-phage antibody, cells were treated with blocking buffer for 30 minutes at RT. Cells were incubated with M13-pIII monoclonal antibody for 1 hour at RT, washed and incubated with the secondary goat anti-mouse IgG antibody labeled with Alexa Flour® 488 (Molecular Probes) at a dilution of 1:500 in PBS containing 1% BSA for 45 minutes at RT. Cells were washed three times after secondary antibody treatment. TOTO-3 was used for nucleus staining. Cells were covered with cover slides with Prolong Gold Anti-fade Reagents. Nail polish was used to seal the slide. Pictures were taken by using the NIKON eclipse TE 2000-E confocal microscope.
(§4) To further confirm the specificity of LGLRGSL (SEQ ID NO: 1) (E11) towards breast cancer cells with an EMT phenotype, immunofluorescence microscopy of intact cells (MCF-7/TGF β and MDA-MB-231), and control MCF-7 breast cancer cells and breast fibroblasts (Hs578T) were used. All cells were treated with the phage (10^8 pfu) at RT for 1 hr, and subsequently incubated with primary anti-pIII antibody and then stained with secondary anti-mouse Alexa fluor 488 secondary antibody. […] No background antibody was observed as shown in the respective controls of cells treated with just primary and secondary antibodies.

Another assay concerns MCF-7/TGFβ. In words: immunofluorescence microscopy of phage binding. It counts as cell-based, human. The note with it: 10^8 pfu, RT 1 hr. How it is done: as §3, §4
The test system of a further assay is MDA-MB-231. The assay can be described thus: immunofluorescence microscopy of phage binding. It counts as cell-based, human. The note with it: 10^8 pfu, RT 1 hr. How it is done: as §3, §4
Assay [3] concerns breast fibroblasts (Hs578T). In words: immunofluorescence microscopy of phage binding. Format: cell-based, human. The note with it: 10^8 pfu, RT 1 hr. How it is done: as §3, §4
In assay [4] the test system is human breast cancer tissue microarray. In words: ex vivo phage binding to human breast cancer tissue microarray. Conditions: for immunostaining for phage in invasive ductal breast cancer carcinoma: invasive ductal carcinoma sections, 10^10 pfu overnight; for binding in normal breast tissues: normal breast tissue. The protocol: FIG. 7A-7E presents results of ex vivo phage binding to a human breast cancer tissue microarray. Tissue microarray of invasive ductal carcinoma and adjacent normal tissues were incubated with 1010 pfu of LGLRGSL phage (SEQ ID NO: 1) or Vimentin antibody and then subsequently with M13-pIII antibody for phage and secondary peroxidase antibody for phage and Vimentin, imaged with a digital light microscope.
The breast tissue microarrays were obtained from Novus Biological (Littleton, Colo.). These include 40 breast cancer infiltrating ductal carcinoma, 10 metastatic lymph node and 9 adjacent normal breast tissues. The use of tissue was approved by the Institutional Review Board of Tuskegee University. Clinico-histopathologic characteristics of the subjects in the tissue microarray study included age, grade, hormone status and clinical stage, according to information provided by the suppliers. The expression levels were classified as negative (≤0.3), weak positive (0.3 to 1.5), or strong positive (≥1.5). Tissues were de-paraffinized in xylene and rehydrated in graded alcohols. For antigen retrieval the slides were pressure-cooked for 10 minutes. Endogenous peroxidase activity was quenched with 3% hydrogen peroxide for 5 minutes. vSlides were treated with LGLRGSL phage (SEQ ID NO: 1) (10^10 pfu) overnight. Slides were subsequently washed and blocked by 3% goat serum at room temperature for 1 hour in humidity chambers. Slides were then treated with M13-pIII phage monoclonal antibody (NEB, MA) or Vimentin antibody (Cell Siganling, Danvers, Mass.) (1:100). The HRP conjugated goat anti-mouse secondary antibody (Jackson Immunoresearch Laboratories Inc, West Grove, Pa.) was applied for 40 minutes. The antigen-antibody reaction was visualized after diaminobenzidine (Sigma-Aldrich, MO) was applied for 7 minutes. The slides were counterstained with hematoxylin (Sigma-Aldrich, MO) for 1 minute. Positive controls were included in each staining run; negative controls were obtained by omitting the primary antibody. Slides were then dehydrated in alcohols and cleared in three xylene baths before being mounted with Permount media.

In the next assay the target is T1, heat shock protein HSPD1 (Homo sapiens, UniProt P10809).
T1 construct: endogenous in cells; host or cells: MDA-MB-231 human breast cancer cells
In words: biotinylated phage pulldown of receptor protein from MDA-MB-231. Format: binding. The note with it: pulldown from MDA-MB-231. The protocol:
The biotinylated phage immobilizes the receptor protein. The Dynal magnetic beads are then functionalized with streptavidin. […] To visualize the protein, the SDS-page gel was treated with silver nitrate staining. FIG. 9B discloses SEQ ID NO: 26. FIG. 9 C provides the sequence of Heat shock protein (HSPD1), mitochondrial n=2 Tax=Homo sapiens RepID=CH60_HUMAN 5 exclusive unique peptides, 5 exclusive unique spectra, 8 total spectra, 48/573 amino acids (8% coverage). FIG. 9C discloses SEQ ID NO: 27.

T1 sequence (P10809 27-573): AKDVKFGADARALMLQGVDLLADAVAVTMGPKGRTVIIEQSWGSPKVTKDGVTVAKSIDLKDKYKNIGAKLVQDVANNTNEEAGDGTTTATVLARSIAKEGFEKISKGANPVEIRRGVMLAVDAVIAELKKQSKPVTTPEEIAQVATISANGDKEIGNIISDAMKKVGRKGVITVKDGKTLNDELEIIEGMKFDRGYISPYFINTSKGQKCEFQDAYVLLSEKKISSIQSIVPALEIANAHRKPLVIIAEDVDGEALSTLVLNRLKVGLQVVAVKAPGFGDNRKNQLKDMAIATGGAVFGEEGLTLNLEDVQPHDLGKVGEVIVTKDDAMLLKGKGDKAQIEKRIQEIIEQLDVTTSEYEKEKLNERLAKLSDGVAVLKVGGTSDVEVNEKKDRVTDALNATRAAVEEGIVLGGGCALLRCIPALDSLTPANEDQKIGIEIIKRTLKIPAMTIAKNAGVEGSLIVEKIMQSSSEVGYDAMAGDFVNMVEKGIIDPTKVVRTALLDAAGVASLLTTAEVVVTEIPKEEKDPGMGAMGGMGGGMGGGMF

Turning to LGLRGSL [E11], the “selectivity for EMT phenotypic cells” value in assay [1] (MCF-7/TGFβ) is “very selective”. The “selectivity towards EMT cells in phage-based ELISA” value in assay [2] is “confirmatory”. Further, the “reactivity to activated fibroblasts” value in the assay with activated fibroblasts (FIG. 5, FBC vs FBD) is reported as “highly reactive”. Further, in the assay with activated fibroblasts (fibroblasts in MDA-MB-231 conditioned media 72 hours vs normal fibroblast media, 10^8 pfu, 2 hours), the “binding to activated-fibroblasts than normal fibroblasts” value is reported as “twice as much”. The “phage binding (green fluorescent phage staining)” value in the assay with MCF-7 cells is listed as “some staining”; in the assay on MCF-7/TGFβ, “abundant binding”; with MDA-MB-231, “abundant binding”; in assay [3] it was “almost no binding”. The figures for the “immunostaining for phage in invasive ductal breast cancer carcinoma” value in [4] and in assay [4] (listed as LGLRGSL phage) were “substantial staining” and “Strong brown staining”, respectively. In addition, in [4] (metastasis in lymph nodes), the “staining intensity in tumors invading into adjacent lymph nodes” value was “increased”. Besides, the entries for the “binding in normal breast tissues” value in [4] and in assay [4] (listed as LGLRGSL phage) were “no binding” and “no staining”, respectively. Moreover, the “staining around the invasive or leading edge of the tumor-stromal interaction” value in [4] (tumor cells, invasive or leading edge) is recorded as “robust staining”. In addition, the “binding to heat shock protein HSPD1” value at heat shock protein HSPD1 is reported as “binds”.
For PNLPWVP [E45], in assay [1] (MCF-7/TGFβ), the “selectivity for EMT phenotypic cells” value is “very selective”.
On the same count and under the same terms, for GTFLFS [E32] the value was “very selective”.
For KGDYKLF [L42], the “selectivity towards MCF-7/TGFβ, MCF-7 and breast fibroblasts” value in assay [1] (MCF-7/TGFβ, MCF-7 and breast fibroblasts) is “not so selective”. Besides, in assay [1] (MDA-MB-231 cells), the “specificity towards MDA-MB-231 cells” value is “high specificity”.
